Measurements reported in ChEMBL document CHEMBL5537137, “Design, synthesis and biological evaluation of biaryl amide derivatives against SARS-CoV-2 with dual-target mechanism” (Eur J Med Chem, 2024).
pEC50, pKd: −log10 of the molar value.

Experiments:
[1] = Cytotoxicity against human NCI-H460 cells incubated for 72 hrs by CCK-8 assay
Human coronavirus OC43 [2] = assay: microbe, parasite or virus in culture; conditions: Betacoronavirus 1, VR-1558, NCI-H460, 72 h
Description: Antiviral activity against HCoV-OC43 VR-1558 infected in human NCI-H460 cells assessed as inhibition of viral growth incubated for 72 hrs by CCK-8 assay

in vitro = conditions: human, NCI-H460 cells
Description: Selectivity index, ratio of CC50 for cytotoxicity against human NCI-H460 cells to EC50 for antiviral activity against HCoV-OC43 VR-1558 infected in human NCI-H460 cells

[3] = molecular target: Replicase polyprotein 1ab (Severe acute respiratory syndrome coronavirus 2, UniProt P0DTD1)
Description: Binding affinity to CM5 sensor chip immobilized SARS-CoV-2 3CL protease assessed as dissociation constant by SPR analysis

Human coronavirus OC43 [4] = assay: microbe, parasite or virus in culture; conditions: Betacoronavirus 1, A549, 96 h
Description: Antiviral activity against HCoV-OC43 infected in human A549 cells assessed as inhibition of viral growth incubated for 4 days

SARS-CoV-2 = assay: microbe, parasite or virus in culture; conditions: Severe acute respiratory syndrome coronavirus 2, IC19/2020, Vero, 48 h
Description: Antiviral activity against SARS-CoV-2 IC19/2020 infected in Vero cells assessed as inhibition of viral growth incubated for 48 hrs by plaque assay

Compound | CC50 at 72 h [1] [µM] | pEC50 (Human coronavirus OC43 [2]) | selectivity ratio (in vitro) | pKd [3] | pEC50 (Human coronavirus OC43 [4]) | pEC50 (SARS-CoV-2)
CN1CCN(Cc2ccc(NC(=O)c3ccc(OCCCCl)c(S(=O)(=O)O)c3)cc2C(F)(F)F)CC1 | > 200 | 4.43 | 7 | – | – | –
CN1CCN(Cc2ccc(NC(=O)c3ccc(OO)c([N+](=O)[O-])c3)cc2C(F)(F)F)CC1 | > 200 | 4.58 | > 8 | – | – | –
CN(C)C1CC(Oc2ccc(NC(=O)c3ccc(OCCCl)c([N+](=O)[O-])c3)cc2C(F)(F)F)C1 (stereo not given) | 9.94 | 5.96 | 9.1 | – | – | –
CN(C)C1CN(Cc2ccc(NC(=O)c3ccc(OCCF)c([N+](=O)[O-])c3)cc2C(F)(F)F)C1 | 75.2 | 5.53 | 25.7 | – | – | –
CN(C)C1CN(Cc2ccc(NC(=O)c3ccc(OCC4CC4)c([N+](=O)[O-])c3)cc2C(F)(F)F)C1 | 14.6 | 6.00 | 14.5 | – | – | –
COc1ccc(C(=O)Nc2ccc(CN3CCN(C)CC3)c(C(F)(F)F)c2)cc1S(N)(=O)=O | 123 | 4.70 | 6.17 | – | – | –
CN(C)C1CC(Oc2ccc(NC(=O)c3ccc(OCC(F)F)c([N+](=O)[O-])c3)cc2C(F)(F)F)C1 (stereo not given) | 34.3 | 5.59 | 13 | – | – | –
Cc1ccc(NC(=O)c2ccc(OCCCCl)c([N+](=O)[O-])c2)cc1C(F)(F)F | 82.4 | 5.42 | 21 | – | – | –
CN(C)C1CC(Oc2ccc(NC(=O)c3ccc(OCCF)c([N+](=O)[O-])c3)cc2C(F)(F)F)C1 (stereo not given) | 27.1 | 5.75 | 15 | – | – | –
COc1ccc(C(=O)Nc2ccc(CN3CC(N(C)C)C3)c(C(F)(F)F)c2)cc1[N+](=O)[O-] | > 200 | 4.92 | > 17 | – | – | –
CCC(=O)Nc1cc(C(=O)Nc2ccc(CN3CC(N(C)C)C3)c(C(F)(F)F)c2)ccc1OCCCCl | 96.2 | 4.65 | 4.3 | – | – | –
CN(C)C1CC(Oc2ccc(NC(=O)c3ccc(OCc4cc(C(F)(F)F)cc(C(F)(F)F)c4)c([N+](=O)[O-])c3)cc2C(F)(F)F)C1 (stereo not given) | 17 | 4.93 | 1 | – | – | –
CC1CC(C)CN(CCCNC(=O)C2CN(Cc3ccc(NC(=O)c4ccc(OCCCCl)c([N+](=O)[O-])c4)cc3C(F)(F)F)C2)C1 (stereo not given) | 14.9 | 5.50 | 4.7 | – | – | –
COc1ccc(C(=O)Nc2ccc(OC3CC(N(C)C)C3)cc2C(F)(F)F)cc1[N+](=O)[O-] (stereo not given) | 99.5 | 4.54 | 3 | – | – | –
C=CCOc1ccc(C(=O)Nc2ccc(CN3CC(N(C)C)C3)c(C(F)(F)F)c2)cc1[N+](=O)[O-] | 28.1 | 5.12 | 4 | – | – | –
CN1CCN(Cc2ccc(NC(=O)c3ccc(OCCCF)c([N+](=O)[O-])c3)cc2C(F)(F)F)CC1 | 17.8 | 5.61 | 7 | – | – | –
CCOc1ccc(C(=O)Nc2ccc(CN3CC(N(C)C)C3)c(C(F)(F)F)c2)cc1[N+](=O)[O-] | > 200 | 5.73 | > 108 | 4.77 | – | –
CN(C)C1CN(Cc2ccc(NC(=O)c3ccc(OCC45CC6CC(CC(C6)C4)C5)c([N+](=O)[O-])c3)cc2C(F)(F)F)C1 | 4.63 | < 5.50 | < 1.7 | – | – | –
COc1ccc(C(=O)Nc2ccc(CN3CCN(C)CC3)c(C(F)(F)F)c2)cc1[N+](=O)[O-] | 30.4 | 5.55 | 10.8 | – | – | –
CCC(=O)Nc1cc(C(=O)Nc2ccc(CN3CCN(C)CC3)nc2)ccc1OCCCCl | 82.7 | 4.38 | 2 | – | – | –
CN(C)C1CC(Oc2ccc(NC(=O)c3ccc(OCC4CC4)c([N+](=O)[O-])c3)cc2C(F)(F)F)C1 (stereo not given) | 8.51 | 5.91 | 7 | – | – | –
CCOc1ccc(C(=O)Nc2ccc(OC3CC(N(C)C)C3)c(C(F)(F)F)c2)cc1[N+](=O)[O-] (stereo not given) | 55.4 | 5.51 | 17.9 | – | – | –
CN(C)C1CC(Oc2ccc(NC(=O)c3ccc(OCC45CC6CC(CC(C6)C4)C5)c([N+](=O)[O-])c3)cc2C(F)(F)F)C1 (stereo not given) | 2.51 | < 5.81 | < 1.7 | – | – | –
Cc1ccc(NC(=O)c2ccc(CN3CCN(C)CC3)cc2)cc1Nc1nc(-c2cccnc2)cs1 [MASITINIB] | – | – | – | – | 5.68 | –
CC(C)C(=O)OC[C@H]1O[C@@H](n2ccc(NO)nc2=O)[C@H](O)[C@@H]1O [MOLNUPIRAVIR] | 18.3 | 6.74 | 102 | – | – | –
O=C(Nc1ccc([N+](=O)[O-])cc1Cl)c1cc(Cl)ccc1O [NICLOSAMIDE] | – | – | – | – | – | 6.40
